PMC7288171, “Synergistic Effects of Thiosemicarbazides with Clinical Drugs against S. aureus” (Molecules, 2020)
≈ marks a conversion by molar mass, not a printed value. Read-outs that look alike come from different tables or passages of the source.

How the values were obtained:
[1] = system: B. cereus ATCC 10876; assay: MIC, broth microdilution; assay type: cell-based; conditions: Bacillus cereus, ATCC10876
Method: (§1) The antibacterial activity of the thiosemicarbazides 1–9 and antibiotics (amoxicillin, gentamicin, levofloxacin, linezolid, and vancomycin) was tested on the Gram-positive strains (Microbiologics, St. Cloud, MN, USA) (S. aureus ATCC 25923, S. aureus ATCC 6538, S. epidermidis ATCC 12228, B. subtilis ATCC 6633, B. cereus ATCC 10876, M. luteus ATCC 10240), the Gram-negative strains (Microbiologics, St. Cloud, MN, USA) (E. coli ATCC 25922, K. pneumoniae ATCC 13883, P. mirabilis ATCC 12453, P. aeruginosa ATCC 9027), and clinical isolates of S. aureus (Medical University of Lublin, Lublin, Poland) (MSSA-1, MSSA-2, MSSA-3, MSSA-4, MRSA-1).

[2] = system: B. subtilis ATCC 6633; assay: MIC, broth microdilution; assay type: cell-based; conditions: Bacillus subtilis, ATCC6633
Method: as §1

[3] = system: M. luteus ATCC 10240; assay: MIC, broth microdilution; assay type: cell-based; conditions: Micrococcus luteus, ATCC10240
Method: as §1

[4] = system: S. aureus ATCC 25923; assay: MIC, broth microdilution; assay type: cell-based; conditions: Staphylococcus aureus, ATCC25923
Method: as §1

[5] = system: S. aureus ATCC 6538; assay: MIC, broth microdilution; assay type: cell-based; conditions: Staphylococcus aureus, ATCC6538
Method: as §1

[6] = system: S. epidermidis ATCC 12228; assay: MIC, broth microdilution; assay type: cell-based; conditions: Staphylococcus epidermidis, ATCC12228
Method: as §1

[7] = system: MRSA-1; assay: MIC, clinical isolate of S. aureus; assay type: cell-based; conditions: Staphylococcus aureus
Method: as §1

[8] = system: MSSA-1; assay: MIC, clinical isolate of S. aureus; assay type: cell-based; conditions: Staphylococcus aureus
Method: as §1

[9] = system: MSSA-2; assay: MIC, clinical isolate of S. aureus; assay type: cell-based; conditions: Staphylococcus aureus
Method: as §1

[10] = system: MSSA-3; assay: MIC, clinical isolate of S. aureus; assay type: cell-based; conditions: Staphylococcus aureus
Method: as §1

[11] = system: MSSA-4; assay: MIC, clinical isolate of S. aureus; assay type: cell-based; conditions: Staphylococcus aureus
Method: as §1

[12] = MTT cytotoxicity assay; assay type: cell-based, human; conditions: human, Hs27 foreskin fibroblast cells (ATCC CRL-1634), 25 µg/mL, 24 h, vehicle control = 100%
Method: (§2) A critical factor in research and development of new antibacterial agents is their abilities to selectively target bacterial cells without toxicity to mammalian cells. Thus, in order to test if antibacterial activity of title thiosemicarbazides is not due to their general toxicity, their effect on mammalian cell viability was assessed using human foreskin fibroblast Hs27 cells (CRL-1634) via MTT assay.
(§3) Cytotoxic properties of the compounds were evaluated using human foreskin fibroblast cells Hs27 (ATCC CRL-1634) (ATCC, Manassas, VA, USA) that were cultured in DMEM-high glucose (Sigma Aldrich, St. Louis, MO, USA). Medium was supplemented with 10% fetal bovine serum (FBS, Sigma Aldrich), 100 U/mL of penicillin, and […] of streptomycin (PenStrep, Sigma Aldrich, St. Louis, MO, USA). Cells were incubated at 37 °C in a humidified atmosphere of 5% CO2. Stock solutions of the tested compounds were prepared dissolving in a sterile dimethyl sulfoxide (DMSO) to the concentration of 50 mg/mL. The cells were seeded into 96-well sterile plates (Nunc) at a cell density of 1 × 10^5 cells/mL. After 24 h of incubation, the medium was removed from each well, and then cells were incubated for the next 24 h with tested compounds (in a fixed dose of 25 µg/mL) in DMEM-high glucose containing 2% FBS. Control cells were cultured only with medium containing 2% addition of FBS. Cytotoxicity of the compounds was evaluated using MTT assay, which is based on the conversion of 3-(4,5-dimethylthiazol-2-yl)-2,5- diphenyltetrazolium bromide (MTT) into dark-blue formazan crystals. Briefly, after 24-h incubation of cells with varying concentrations of the tested compounds, culture medium was removed from the plates. Cells were washed with PBS, and then 100 µL of medium containing 10% MTT solution (5 mg/mL) was added to each well. Cells were incubated for the next 3 h at 37 °C in an atmosphere of 5% CO2. Next, 100 µL (per well) of 10% sodium dodecyl sulfate (SDS) buffer solution was added to dissolve formazan crystals and after an overnight incubation the absorbance was measured at 570 nm using a microplate reader (Epoch, BioTek Instruments, Inc., Winooski, VT, USA).

[13] = system: human foreskin fibroblast Hs27 cells (CRL-1634); assay: MTT cytotoxicity assay; assay type: cell-based; conditions: Homo sapiens, 24 h of treatment
Method: as §2, §3

[14] = molecular target: T1, S. aureus DNA gyrase (Staphylococcus aureus, UniProt P0A0K8+P20831); assay: Gyrase supercoiling assay; assay type: biochemical
T1 construct: purchased Inspiralis, Norwich, UK
Method: Supercoiling assay: The assays were performed using S. aureus Gyrase Supercoiling Assay Kits (Inspiralis, Norwich, UK). Briefly, […] pBR322 plasmid DNA (0.5 µg) was incubated with 1 unit of gyrase, in the dedicated supercoiling assay buffer supplied by the manufacturer, in the presence of varying concentrations of the test compounds. Reactions were carried out at 37 °C for 1 h and then terminated by the addition of equal volume of 2 × STOP Buffer (40% sucrose, 100 mM Tris-Cl pH 7.5, 1 mM EDTA, and 0.5 mg/mL bromophenol blue) and chloroform/iso-amyl alcohol. Samples were vortexed, centrifuged, and run through a 15 cm 1% agarose gel in TAE buffer (40 mM Tris-acetate, 2 mM EDTA) for 3 h at 50 V. Gels were stained with ethidium bromide and visualized under UV light.

[15] = system: S. aureus ATCC 25923; assay: Checkerboard broth dilution synergy assay; assay type: cell-based
Method: The microdilution checkerboard method was used to evaluate the synergistic effects between the thiosemicarbazides 1–9 and antibiotics, which were determined as the fractional inhibitory concentration indices (FICIs). For these experiments, amoxicillin, gentamicin, levofloxacin, linezolid, and vancomycin were selected to represent the five antimicrobial classes most commonly used in clinical practice. In this way, a total of 45 combinations of thiosemicarbazide-amoxicillin, thiosemicarbazide-gentamicin, thiosemicarbazide-levofloxacin, thiosemicarbazide-linezolid, and thiosemicarbazide-vancomycin against S. aureus ATCC 25923 were tested to identify in vitro synergy effects.
Interaction of the thiosemicarbazides 1–9 in combination with amoxicillin, gentamicin, levofloxacin, linezolid or vancomycin against S. aureus ATCC 25923 were analyzed using the checkerboard broth dilution method to determine the fractional inhibitory concentration indices (FICIs), calculated as: FIC = MIC of drug A in combination/MIC of drug A alone + MIC of drug B in combination/MIC of drug B alone. The calculated FICIs were interpreted as synergistic (FIC ≤ 0.5), additive (0.5 < FIC < 1), indifferent (1 ≤ FIC < 4.0), or antagonistic (FIC ≥ 4.0). The checkerboard assay included ciprofloxacin-carvedilol combination as positive control, whereas cefuroxime in combination with 4-(4-bromophenyl)-1-(3-fluorobezoyl)thiosemicarbazide served as negative control. The Z-factor value for the bioassay was 0.683.

[16] = B. c. ATCC 10876, compounds 6–9 and antibiotics, read-out: MIC
[17] = B. s. ATCC 6633, compounds 6–9 and antibiotics, read-out: MIC
[18] = M. l. ATCC 10240, compounds 6–9 and antibiotics, read-out: MIC
[19] = S. a. ATCC 25923, compounds 6–9 and antibiotics, read-out: MIC
[20] = S. a. ATCC 6538, compounds 6–9 and antibiotics, read-out: MIC
[21] = S. e. ATCC 12228, compounds 6–9 and antibiotics, read-out: MIC
[22] = clinical isolate MRSA-1, read-out: MIC
[23] = clinical isolate MSSA-1, read-out: MIC
[24] = clinical isolate MSSA-2, read-out: MIC
[25] = clinical isolate MSSA-3, read-out: MIC
[26] = clinical isolate MSSA-4, read-out: MIC

Row | MIC [1, 16] [µg/mL] | MIC [2, 17] [µg/mL] | MIC [3, 18] [µg/mL] | MIC [4, 19] [µg/mL] | MIC [5, 20] [µg/mL] | MIC [6, 21] [µg/mL] | MIC [7, 22] [µg/mL] | MIC [8, 23] [µg/mL] | MIC [9, 24] [µg/mL] | MIC [10, 25] [µg/mL] | MIC [11, 26] [µg/mL] | Compound | viability at 24 h, 25 µg/mL [12] [%] | IC50 [13] [µg/mL] | also measured
1 | – | – | – | – | – | – | – | – | – | – | – | CN[C@H](CC(C)C)C(=O)N[C@H]1C(=O)N[C@@H](CC(N)=O)C(=O)N[C@H]2C(=O)N[C@H]3C(=O)N[C@H](C(=O)N[C@H](C(=O)O)c4cc(O)cc(O)c4-c4cc3ccc4O)[C@H](O)c3ccc(c(Cl)c3)Oc3cc2cc(c3O[C@@H]2O[C@H](CO)[C@@H](O)[C@H](O)[C@H]2O[C@H]2C[C@](C)(N)[C@H](O)[C@H](C)O2)Oc2ccc(cc2Cl)[C@H]1O [VA, vancomycin, reference compound] | – | – | MIC [1]: 0.98 µg/mL (≈ 0.676 µM); MIC [2]: 0.24 µg/mL (≈ 0.166 µM); MIC [3]: 0.24 µg/mL (≈ 0.166 µM); MIC [4]: 0.98 µg/mL (≈ 0.676 µM); MIC [5]: 0.49 µg/mL (≈ 0.338 µM); MIC [6]: 0.98 µg/mL (≈ 0.676 µM); MIC ([7]; MRSA): 0.98 µg/mL (≈ 0.676 µM); MIC ([8]; MSSA): 0.49 µg/mL (≈ 0.338 µM); MIC ([9]; MSSA): 0.49 µg/mL (≈ 0.338 µM); MIC ([10]; MSSA): 0.49 µg/mL (≈ 0.338 µM); MIC ([11]; MSSA): 0.49 µg/mL (≈ 0.338 µM)
2 | 0.98 (≈ 2.9 µM) | 0.98 (≈ 2.9 µM) | 0.98 (≈ 2.9 µM) | 1.95 (≈ 5.78 µM) | 0.98 (≈ 2.9 µM) | 0.49 (≈ 1.45 µM) | 1.95 (≈ 5.78 µM) | 1.95 (≈ 5.78 µM) | 1.95 (≈ 5.78 µM) | 0.98 (≈ 2.9 µM) | 1.95 (≈ 5.78 µM) | CC(=O)NC[C@H]1CN(c2ccc(N3CCOCC3)c(F)c2)C(=O)O1 [LZD, linezolid, reference compound] | – | – | –
3 | > 250 | 0.12 (≈ 0.328 µM) | 0.24 (≈ 0.657 µM) | 0.12 (≈ 0.328 µM) | 0.12 (≈ 0.328 µM) | 7.81 (≈ 21.4 µM) | 31.2 (≈ 85.5 µM) | 1.95 (≈ 5.34 µM) | 0.12 (≈ 0.328 µM) | 0.98 (≈ 2.68 µM) | 31.2 (≈ 85.5 µM) | CC1(C)S[C@@H]2[C@H](NC(=O)[C@H](N)c3ccc(O)cc3)C(=O)N2[C@H]1C(=O)O [AMX, amoxicillin, reference compound] | – | – | –
4 | 15.6 (≈ 32.7 µM) | 0.24 (≈ 0.503 µM) | 0.98 (≈ 2.05 µM) | 1.95 (≈ 4.08 µM) | 0.98 (≈ 2.05 µM) | 0.12 (≈ 0.251 µM) | 0.98 (≈ 2.05 µM) | 0.98 (≈ 2.05 µM) | 0.49 (≈ 1.03 µM) | 7.81 (≈ 16.4 µM) | 1.95 (≈ 4.08 µM) | CNC(C)C1CCC(N)C(OC2C(N)CC(N)C(OC3OCC(C)(O)C(NC)C3O)C2O)O1 (stereo not shown) [GN, gentamicin, reference compound] | – | – | –

Row | Compound | MIC [1, 16] [µg/mL] | MIC [2, 17] [µg/mL] | MIC [3, 18] [µg/mL] | MIC [4, 19] [µg/mL] | MIC [5, 20] [µg/mL] | MIC [6, 21] [µg/mL] | MIC [7, 22] [µg/mL] | MIC [8, 23] [µg/mL] | MIC [9, 24] [µg/mL] | MIC [10, 25] [µg/mL] | MIC [11, 26] [µg/mL] | viability at 24 h, 25 µg/mL [12] [%] | IC50 [13] [µg/mL] | also measured
5 | C[C@H]1COc2c(N3CCN(C)CC3)c(F)cc3c(=O)c(C(=O)O)cn1c23 [LEV, levofloxacin, reference compound] | 0.12 (≈ 0.332 µM) | 0.12 (≈ 0.332 µM) | 0.98 (≈ 2.71 µM) | 0.24 (≈ 0.664 µM) | 0.24 (≈ 0.664 µM) | 0.12 (≈ 0.332 µM) | 31.2 (≈ 86.5 µM) | 0.12 (≈ 0.332 µM) | 0.24 (≈ 0.664 µM) | 0.12 (≈ 0.332 µM) | 0.12 (≈ 0.332 µM) | 101 | > 25 | inhibition at 100 µM ([14]; 100 µM, read-out: S. aureus Gyrase DNA Inhibition (%) ± SD): 92.4 ± 3.74%
6 | O=C(NNC(=S)Nc1ccc(Cl)cc1)c1ccccc1F [compound 6, 4-(4-chlorophenyl)-1-(2-fluorobenzoyl)thiosemicarbazide] | 31.2 (≈ 96.5 µM) | 500 (≈ 1540 µM) | 7.82 (≈ 24.2 µM) | 500 (≈ 1540 µM) | 250 (≈ 772 µM) | 250 (≈ 772 µM) | 500 (≈ 1540 µM) | 250 (≈ 772 µM) | > 500 | 250 (≈ 772 µM) | 125 (≈ 386 µM) | 96.8 | > 25 | interaction in combination ([15]; combination with amoxicillin): additive; interaction in combination ([15]; combination with gentamicin): synergistic; interaction in combination ([15]; combination with levofloxacin): additive; interaction in combination ([15]; combination with linezolid): synergistic; interaction in combination ([15]; combination with vancomycin): additive; inhibition at 50 µM ([14]; 50 µM, read-out: S. aureus Gyrase DNA Inhibition (%) ± SD): 30.8 ± 3.19%; S. aureus Gyrase DNA Inhibition (%) ± SD ([14]; 100 µM): 49.22 ± 3.18%; inhibition at 100 µM ([14]; read-out: S. aureus Gyrase DNA Inhibition (%) ± SD, 100 µM): ~50%
